These results are taken from patent US9216999B2, “Substituted pyrrolo[2,3-h][1,6]naphthyridines and compositions thereof as JAK inhibitors” (priority 2011, dated 2015).

Read-outs that look alike come from different tables or passages of the source.

Type in all cases: biochemical
Assay [1] concerns the target JAK3 (Homo sapiens (Human), UniProt P52333). Description: Enzyme assay (Assay Example^a 1), JAK3.
Assay [2] concerns the target Tyk2 (Homo sapiens (Human), UniProt P29597). Description: Enzyme assay (Assay Example^a 1), Tyk2. The following applies: ATP 100 μM.
Assay [3] deals with JAK1 (Homo sapiens (Human), UniProt P23458). Description: Enzyme assay (Assay Example^a 1), JAK1. The following applies: ATP 100 μM.
Assay [4] concerns the target JAK2 (Homo sapiens (Human), UniProt O60674). Description: Enzyme assay (Assay Example^a 1), JAK2.

Sequence of JAK3 (P52333 whole entry): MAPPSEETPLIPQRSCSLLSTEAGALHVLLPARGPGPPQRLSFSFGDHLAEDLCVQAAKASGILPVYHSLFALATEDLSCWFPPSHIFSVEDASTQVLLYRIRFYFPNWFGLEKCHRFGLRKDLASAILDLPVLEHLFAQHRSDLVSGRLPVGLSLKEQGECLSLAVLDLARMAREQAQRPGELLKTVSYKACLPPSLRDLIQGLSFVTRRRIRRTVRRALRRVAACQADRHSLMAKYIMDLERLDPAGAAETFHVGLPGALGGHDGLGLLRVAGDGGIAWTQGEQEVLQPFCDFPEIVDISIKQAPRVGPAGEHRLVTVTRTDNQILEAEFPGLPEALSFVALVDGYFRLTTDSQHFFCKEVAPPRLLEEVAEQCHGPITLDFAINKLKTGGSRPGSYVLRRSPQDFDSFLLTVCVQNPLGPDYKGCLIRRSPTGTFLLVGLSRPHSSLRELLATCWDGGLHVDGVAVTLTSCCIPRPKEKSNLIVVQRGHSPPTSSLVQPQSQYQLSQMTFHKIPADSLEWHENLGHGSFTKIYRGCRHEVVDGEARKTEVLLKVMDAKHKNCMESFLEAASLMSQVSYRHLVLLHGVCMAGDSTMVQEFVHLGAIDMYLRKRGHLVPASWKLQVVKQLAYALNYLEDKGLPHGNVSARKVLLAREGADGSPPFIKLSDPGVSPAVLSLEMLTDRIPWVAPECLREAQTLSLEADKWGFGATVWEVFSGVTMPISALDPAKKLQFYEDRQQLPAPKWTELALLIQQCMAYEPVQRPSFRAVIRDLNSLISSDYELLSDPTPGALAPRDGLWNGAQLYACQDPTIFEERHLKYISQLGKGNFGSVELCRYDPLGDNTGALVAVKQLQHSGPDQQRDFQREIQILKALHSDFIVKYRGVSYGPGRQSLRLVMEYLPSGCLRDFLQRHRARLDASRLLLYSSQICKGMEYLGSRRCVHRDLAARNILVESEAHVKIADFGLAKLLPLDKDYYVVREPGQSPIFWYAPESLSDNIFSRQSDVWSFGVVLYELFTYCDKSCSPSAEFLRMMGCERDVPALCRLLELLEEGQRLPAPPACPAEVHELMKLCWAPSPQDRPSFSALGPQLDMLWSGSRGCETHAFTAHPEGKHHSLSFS
Sequence of Tyk2 (P29597 whole entry): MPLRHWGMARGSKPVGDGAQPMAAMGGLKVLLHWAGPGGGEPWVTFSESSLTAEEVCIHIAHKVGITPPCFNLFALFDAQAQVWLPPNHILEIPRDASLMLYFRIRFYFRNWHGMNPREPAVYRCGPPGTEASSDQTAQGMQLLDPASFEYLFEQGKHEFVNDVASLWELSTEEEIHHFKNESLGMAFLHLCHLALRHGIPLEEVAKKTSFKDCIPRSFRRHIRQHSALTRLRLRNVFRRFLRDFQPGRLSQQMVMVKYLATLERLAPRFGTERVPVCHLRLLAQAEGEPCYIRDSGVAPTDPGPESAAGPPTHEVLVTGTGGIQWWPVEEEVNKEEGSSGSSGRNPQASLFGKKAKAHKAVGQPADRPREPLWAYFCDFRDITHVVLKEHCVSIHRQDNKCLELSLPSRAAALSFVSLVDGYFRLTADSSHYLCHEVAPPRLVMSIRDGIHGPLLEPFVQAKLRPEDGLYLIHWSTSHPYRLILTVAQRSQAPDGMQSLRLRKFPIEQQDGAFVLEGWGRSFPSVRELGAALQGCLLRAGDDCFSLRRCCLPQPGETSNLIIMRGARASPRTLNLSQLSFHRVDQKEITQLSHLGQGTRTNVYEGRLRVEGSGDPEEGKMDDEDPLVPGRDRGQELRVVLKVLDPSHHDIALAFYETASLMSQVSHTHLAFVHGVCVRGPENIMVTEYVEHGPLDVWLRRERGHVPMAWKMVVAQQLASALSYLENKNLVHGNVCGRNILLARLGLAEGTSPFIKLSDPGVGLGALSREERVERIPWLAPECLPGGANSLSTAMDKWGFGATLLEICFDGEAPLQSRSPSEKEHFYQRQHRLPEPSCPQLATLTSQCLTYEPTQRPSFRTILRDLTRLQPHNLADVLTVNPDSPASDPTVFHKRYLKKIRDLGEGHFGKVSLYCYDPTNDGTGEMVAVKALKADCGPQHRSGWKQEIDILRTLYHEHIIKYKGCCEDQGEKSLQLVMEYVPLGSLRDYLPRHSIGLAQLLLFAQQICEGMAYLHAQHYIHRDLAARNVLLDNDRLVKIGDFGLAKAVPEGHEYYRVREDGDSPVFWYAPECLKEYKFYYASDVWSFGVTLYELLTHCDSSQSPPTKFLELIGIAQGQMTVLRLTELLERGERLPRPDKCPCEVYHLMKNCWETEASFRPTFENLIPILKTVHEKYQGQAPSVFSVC

Consider `N#CC[C@H]1CC[C@H](c2nnn3cnc4[nH]ccc4c23)CC1` [435b, 2-[trans-4-(7H-Pyrrolo[3,2-e][1,2,3]triazolo[1,5-c]pyrimidin-1-yl)cyclohexyl]acetonitrile], for which the IC50 – broadly, the midpoint of a concentration-inhibition curve – in assay [1] (ATP 100 μM) stood at 0.032 µM; in assay [2], 0.0029 µM; in assay [3], 0.00011 µM; in assay [4] (ATP 100 μM) it was 0.0025 µM.
As to `CC(C#N)[C@H]1CC[C@@H](c2nnn3cnc4[nH]ccc4c23)CC1` (stereo partly drawn) [439a, 2-[cis-4-(7H-Pyrrolo[3,2-e][1,2,3]triazolo[1,5-c]pyrimidin-1-yl)cyclohexyl]propanenitrile], the IC50 in assay [1] (ATP 100 μM) is greater than 1 µM; in assay [2], greater than 1 µM; in assay [3], 0.13 µM; in assay [4] (ATP 100 μM), 0.34 µM.
As to `CC(C#N)[C@H]1CC[C@H](c2nnn3cnc4[nH]ccc4c23)CC1` (stereo partly drawn) [439b, 2-[trans-4-(7H-Pyrrolo[3,2-e][1,2,3]triazolo[1,5-c]pyrimidin-1-yl)cyclohexyl]propanenitrile], the IC50 in assay [1] (ATP 100 μM) turned out to be 0.33 µM; in assay [2], 0.025 µM; in assay [3] it was 0.0031 µM; in assay [4] (ATP 100 μM), 0.0067 µM.
As for `O=C(C[C@H]1CC[C@@H](c2nnn3cnc4[nH]ccc4c23)CC1)NCC(F)(F)F` [442a, 2-[cis-4-(7H-Pyrrolo[3,2-e][1,2,3]triazolo[1,5-c]pyrimidin-1-yl)cyclohexyl]-N-2,2,2-trifluoroethylacetamide], the IC50 in assay [1] (ATP 100 μM) is 0.52 µM; in assay [2] it was 0.79 µM; in assay [3] it was 0.027 µM; in assay [4] (ATP 100 μM), 0.061 µM.
For `O=C(C[C@H]1CC[C@H](c2nnn3cnc4[nH]ccc4c23)CC1)NCC(F)(F)F` [442b, 2-[trans-4-(7H-Pyrrolo[3,2-e][1,2,3]triazolo[1,5-c]pyrimidin-1-yl)cyclohexyl]-N-2,2,2-trifluoroethylacetamide], the half-maximal inhibitory concentration (IC50) in assay [1] (ATP 100 μM) was 0.1 µM; in assay [2] it was 0.88 µM; in assay [3], 0.0032 µM; in assay [4] (ATP 100 μM), 0.014 µM.
With `N#CCNC(=O)C[C@H]1CC[C@@H](c2nnn3cnc4[nH]ccc4c23)CC1` [443a, 2-[cis-4-(7H-Pyrrolo[3,2-e][1,2,3]triazolo[1,5-c]pyrimidin-1-yl)cyclohexyl]-N-(cyanomethyl)acetamide], the IC50 in assay [1] (ATP 100 μM) turned out to be 0.73 µM; in assay [2], 0.54 µM; in assay [3], 0.026 µM; in assay [4] (ATP 100 μM), 0.06 µM.
The like results for `N#CCNC(=O)C[C@H]1CC[C@H](c2nnn3cnc4[nH]ccc4c23)CC1` [443b, 2-[trans-4-(7H-Pyrrolo[3,2-e][1,2,3]triazolo[1,5-c]pyrimidin-1-yl)cyclohexyl]-N-(cyanomethyl)acetamide] were, in that order, 0.34 µM, greater than 1 µM, 0.01 µM and 0.03 µM.
The like results for `Cc1ccccc1-c1nnn2cnc3[nH]ccc3c12` [compound 5] were, in that order, 0.26 µM, 0.13 µM, 0.02 µM and 0.13 µM.
With `c1cc2c(ncn3nnc(C4CCCCC4)c23)[nH]1` [compound 6], the concentration for half-maximal inhibition (IC50) came out at 0.15 µM in assay [1] (ATP 100 μM), 0.046 µM in assay [2], 0.0038 µM in assay [3] and 0.012 µM in assay [4] (ATP 100 μM).
As for `CC1CCCCC1c1nnn2cnc3[nH]ccc3c12` (centres unmarked) [compound 7], the IC50 stood at 0.055 µM in assay [1], 0.056 µM in assay [2], 0.0042 µM in assay [3] and 0.012 µM in assay [4] (ATP 100 μM).
In the case of `S=c1[nH]c(C2CCCCC2)c2c3cc[nH]c3ncn12` [compound 8], the IC50 is 0.43 µM in assay [1] (ATP 100 μM), 0.036 µM in assay [2], 0.02 µM in assay [3] and 0.03 µM in assay [4] (ATP 100 μM).
In the case of `O=c1[nH]c(C2CCCCC2)c2c3cc[nH]c3ncn12` [compound 9], the IC50 was 0.43 µM in assay [1], 0.078 µM in assay [2], 0.03 µM in assay [3] and 0.046 µM in assay [4] (ATP 100 μM).
With `FC(F)(F)c1ccc(CCN2CCC(c3nnn4cnc5[nH]ccc5c34)CC2)cc1` [compound 42], the 50% inhibitory concentration (IC50) in assay [1] (ATP 100 μM, Table^a 154) is greater than 1 µM; in assay [2] (Table^a 154) it was greater than 1 µM; in assay [3] (Table^a 154), 0.082 µM; in assay [4] (ATP 100 μM, Table^a 154) it was 0.41 µM.
Turning to `c1csc(CN2CCC(c3nnn4cnc5[nH]ccc5c34)CC2)n1` [compound 48], the IC50 in assay [1] (ATP 100 μM, Table^a 154) is 0.44 µM; in assay [2] (Table^a 154) it was 0.46 µM; in assay [3] (Table^a 154), 0.022 µM; in assay [4] (ATP 100 μM, Table^a 154) it was 0.054 µM.
With `O=C(N[C@H]1CC[C@H](c2nnn3cnc4[nH]ccc4c23)CC1)OCc1ccccc1` [compound 60], the IC50 in assay [1] (ATP 100 μM, Table^a 154) is greater than 1 µM; in assay [2] (Table^a 154), 4.2 µM; in assay [3] (Table^a 154), 0.0051 µM; in assay [4], 0.032 µM.
Regarding `c1cc2c(ncn3nnc(C4CCC4)c23)[nH]1` [compound 67], the IC50 in assay [1] (ATP 100 μM, Table^a 154) was 0.65 µM; in assay [2] (Table^a 154), 0.41 µM; in assay [3] (Table^a 154) it was 0.052 µM; in assay [4] (ATP 100 μM, Table^a 154), 0.2 µM.
For `N#CC1CCN(C[C@H]2CC[C@H](c3nnn4cnc5[nH]ccc5c34)CC2)CC1` [compound 89] the same measures were greater than 1 µM, 0.61 µM, 0.025 µM and 0.2 µM.
Take `Cc1ccc(CNC[C@H]2CC[C@H](c3nnn4cnc5[nH]ccc5c34)CC2)s1` [compound 106]: the half-maximal inhibitory concentration (IC50) in assay [1] amounted to 0.28 µM; in assay [2] (Table^a 154), 0.0036 µM; in assay [3] (Table^a 154), 0.0019 µM; in assay [4] (ATP 100 μM, Table^a 154) it was 0.041 µM.
In the case of `FCCNC[C@H]1CC[C@H](c2nnn3cnc4[nH]ccc4c23)CC1` [compound 107], the half-maximal inhibitory concentration (IC50) is 0.28 µM in assay [1]; 0.036 µM in assay [2] (Table^a 154); 0.0028 µM in assay [3] (Table^a 154); 0.055 µM in assay [4] (ATP 100 μM, Table^a 154).
For the compound `CN(C[C@H]1CC[C@H](c2nnn3cnc4[nH]ccc4c23)CC1)c1ccc(C#N)cc1` [compound 108], the IC50 in assay [1] (ATP 100 μM, Table^a 154) came out at 0.58 µM; in assay [2] (Table^a 154), 0.58 µM; in assay [3] (Table^a 154), 0.0039 µM; in assay [4] (ATP 100 μM, Table^a 154), 0.024 µM.
Consider `Fc1ccc(CCNC[C@H]2CC[C@H](c3nnn4cnc5[nH]ccc5c34)CC2)cc1` [compound 111], for which the IC50 was found to be 0.22 µM in assay [1] (ATP 100 μM, Table^a 154); 0.028 µM in assay [2] (Table^a 154); 0.0019 µM in assay [3] (Table^a 154); 0.027 µM in assay [4] (ATP 100 μM, Table^a 154).
For `CS(=O)(=O)c1ccc(CN2CCC(c3nnn4cnc5[nH]ccc5c34)CC2)cc1` [compound 156] the same measures were 0.52 µM, 0.65 µM, 0.0032 µM and 0.042 µM.
As for `Fc1cc(C(F)(F)F)ccc1CN1CCC(c2nnn3cnc4[nH]ccc4c23)CC1` [compound 157], the half-inhibitory concentration (IC50) in assay [1] (ATP 100 μM, Table^a 154) stood at 0.24 µM; in assay [2] (Table^a 154), 0.31 µM; in assay [3] (Table^a 154) it was 0.002 µM; in assay [4] (ATP 100 μM, Table^a 154), 0.02 µM.
For the compound `Fc1cc(Cl)ccc1CN1CCC(c2nnn3cnc4[nH]ccc4c23)CC1` [compound 158], the IC50 in assay [1] (ATP 100 μM, Table^a 154) came out at 0.059 µM; in assay [2] (Table^a 154), 0.097 µM; in assay [3] (Table^a 154), 0.0007 µM; in assay [4] (ATP 100 μM, Table^a 154), 0.0044 µM.
As for `Fc1cc(CN2CCC(c3nnn4cnc5[nH]ccc5c34)CC2)ccc1Cl` [compound 159], the concentration for half-maximal inhibition (IC50) in assay [1] (ATP 100 μM, Table^a 154) was determined as 0.08 µM; in assay [2] (Table^a 154), 0.3 µM; in assay [3] (Table^a 154), 0.0016 µM; in assay [4] (ATP 100 μM, Table^a 154), 0.011 µM.
For `Clc1cc(CN2CCC(c3nnn4cnc5[nH]ccc5c34)CC2)ccn1` [compound 160] the same measures were 0.35 µM, 0.26 µM, 0.0053 µM and 0.021 µM.
